In patent publication US10759792B2, “CaMKII inhibitors and uses thereof” (The Johns Hopkins University, priority 2014, dated 2020):
pIC50: −log10 of the molar value.

Molecular target: CaMKIIδ (Homo sapiens (Human), UniProt Q13557)
Assay: In vitro CaMKIIδ activity assay (coupled assay measuring ADP released, peptide substrate AC3)
Type: biochemical
Settings: full length C-terminal His/Gln tagged CaMKIIδ construct, 16 nM enzyme, 25° C., duplicate
Protocol: An exemplary procedure for the in vitro CaMKIIδ inhibition assay, which can be used to determine the inhibitory action of compounds of the invention toward CaMKII, follows. The procedure is taken from Chao L H, et al., (2010) Nat Struct Mol Biol. 17(3): 264-272, which is incorporated herein by reference in its entirety.
The inhibition of CaMKII activity was evaluated using a coupled assay measuring ADP released following ATP hydrolysis and phosphor-transfer to the peptide substrate AC3 (KKALHRQETVDAL; SEQ ID NO: 1) (1). A full length, C-terminal His/Gln tagged CaMKIIδ construct was used (sequence in Table 3 below).
Compounds were added in 5 uL volume to wells in UV transparent 96-well plates (½ area well size). The final compound concentrations tested ranged from 0.5 nM to 10 uM). Assays were performed in duplicate. CaMKIIδ is added to at a final concentration of 16 nM to a mixture containing 100 mM Tris (pH 7.5), 150 mM KCl, 0.27 mM EGTA, 1.3 mM PEP, 0.2 mg/ml AC3, 6.9% (v/v) PK/LDH mixture (Sigma P0294), 0.38 mM NADH and kept on ice. 72 uL of the enzyme mixture was added to the wells containing compounds and the plate was shaken briefly and kept on ice. The assay was initiated by adding 23 uL of a mixture containing 100 mM Tris (pH 7.5), 150 mM KCl, 1.7 mM CaCl2, 48 mM MgCl2, 0.35 mM ATP and 6.7 ug/mL calmodulin. The rate of ADP released was measured as the rate of absorbance decrease at […] at 25° C. and plotted against the log of the compound concentration (FIG. 1). IC50 data were fitted using GraphPad Prism software.

| Structure (SMILES) | pIC50 |
| --- | --- |
| NCCNc1cccc(-c2ccnc3[nH]c4ccc(Cl)cc4c23)c1 [Compound I-14, N1-(3-(6-chloro-9H-pyrido[2,3-b]indol-4-yl)phenyl)ethane-1,2-diamine] | ≥ 7.30 |
| c1cc(-c2ccnc3[nH]c4ccccc4c23)nc(N2CCNCC2)c1 [Compound 9j] | ≥ 7.30 |
| Cc1ccc2[nH]c3nccc(-c4cccc(NCCN)c4)c3c2c1 [Compound I-13, N1-(3-(6-methyl-9H-pyrido[2,3-b]indol-4-yl)phenyl)ethane-1,2-diamine] | ≥ 7.30 |
| Cc1nn(C2CCNCC2)cc1-c1ccnc2[nH]c3ccccc3c12 [Compound 9l] | ≤ 6.00 |
| NCCNc1cccc(-c2ccnc3[nH]c4ccccc4c23)c1 [Compound I-7, N1-(3-(9H-pyrido[2,3-b]indol-4-yl)phenyl)ethane-1,2-diamine] | ≥ 7.30 |
| c1ccc2c(c1)[nH]c1nccc(-c3cncc(N4CCNCC4)c3)c12 [Compound 9a] | 6.00 to 6.60 |
| C(=C\c1ccnc2[nH]c3ccccc3c12)/CN1CCNCC1 [Compound 9h] | ≤ 6.00 |
| C(#Cc1ccnc2[nH]c3ccccc3c12)CN1CCNCC1 [Compound 9n] | 6.00 to 6.60 |
| Clc1ccncc1-c1ccnc2[nH]c3ccccc3c12 [Compound 8p] | ≤ 6.00 |
| NCCCOc1cccc(-c2ccnc3[nH]c4ccccc4c23)c1 [Compound I-10, 3-(3-(9H-pyrido[2,3-b]indol-4-yl)phenoxy)propan-1-amine] | ≥ 7.30 |
| c1ccc2c(c1)[nH]c1nccc(-c3cnc(N4CCNCC4)s3)c12 [Compound 9k] | ≤ 6.00 |
| c1ccc2c(c1)[nH]c1nccc(-n3cc(C4CCNCC4)nn3)c12 [Compound 9e] | ≤ 6.00 |

Next, values leading:

| pIC50 | Structure (SMILES) |
| --- | --- |
| ≥ 7.30 | COc1ccc2c(c1)[nH]c1nccc(-c3cccc(NCCN)c3)c12 [Compound I-12, N1-(3-(7-methoxy-9H-pyrido[2,3-b]indol-4-yl)phenyl)ethane-1,2-diamine] |
| ≤ 6.00 | Clc1cnccc1-c1ccnc2[nH]c3ccccc3c12 [Compound 8r] |
| ≤ 6.00 | c1cc(-c2ccnc3[nH]c4ccccc4c23)cc(-n2ccnc2)c1 [Compound I-2, 4-(3-(1H-imidazol-1-yl)phenyl)-9H-pyrido[2,3-b]indole] |
| ≥ 7.30 | NCCOc1cccc(-c2ccnc3[nH]c4ccccc4c23)c1 [Compound I-9, 2-(3-(9H-pyrido[2,3-b]indol-4-yl)phenoxy)ethanamine] |
| ≤ 6.00 | NCc1cccc(-c2ccnc3[nH]c4ccccc4c23)c1 [Compound I-3] |
| ≤ 6.00 | C(=C/c1ccnc2[nH]c3ccccc3c12)/CN1CCNCC1 [Compound 9o] |
| 6.00 to 6.60 | c1ccc2c(c1)[nH]c1nccc(-c3cc[nH]c3)c12 [Compound 8q] |
| ≤ 6.00 | c1ccc2c(c1)[nH]c1nccc(-c3cnn(C4CCNCC4)c3)c12 [Compound 9m] |
